# Experimental data reported in ChEMBL document CHEMBL5518163, “Brazilin-7-acetate, a novel potential drug of Parkinson's disease, hinders the formation of α-synuclein fibril, mitigates cytotoxicity, and decreases oxidative stress” (Eur J Med Chem, 2024).
# Activity calls are given as the source filed them. The rule behind the calls is not given here.
# Experiments:
# [1] = molecular target: Alpha-synuclein (Homo sapiens) (UniProt P37840); assay: Inhibition of recombinant alpha-synuclein (unknown origin) fibrillation at 1 to 20 uM measured after 30 mins by ThT fluorescence based spectrofluorometer analysis relative to control; details: dose 1-20 µM
# PC-12 [2] = assay: Cytotoxicity against rat PC12 cells assessed as survival rate at 100 uM incubated for 10 days by MTT assay relative to control; format: functional; details: time 10 day
# PC-12 [3] = assay: Cytotoxicity against rat PC12 cells assessed as survival rate at 50 to 100 uM incubated for 10 days by MTT assay relative to control; format: functional; details: dose 50-100 µM, time 10 day
# PC-12 [4] = assay: Cytotoxicity against rat PC12 cells assessed as survival rate at 50 uM incubated for 10 days by MTT assay relative to control; format: functional; details: time 10 day
# PC-12 [5] = assay: Cytotoxicity against rat PC12 cells assessed as survival rate at 25 uM incubated for 10 days by MTT assay relative to control; format: functional; details: time 10 day
# Caenorhabditis elegans [6] = assay: Antioxidant activity against transgenic Caenorhabditis elegans NL5901 expressing YFP-tagged alpha-synuclein assessed as decrease in MDA content relative to control; format: functional; parameters: scale not given: the % may be the effect or the level left
# Caenorhabditis elegans [7] = assay: Antioxidant activity against transgenic Caenorhabditis elegans NL5901 expressing YFP-tagged alpha-synuclein assessed as increase in lipid content relative to control; format: functional
# [8] = In vivo inhibition of alpha-synuclein aggregation in transgenic Caenorhabditis elegans NL5901 expressing YFP-tagged alpha-synuclein assessed as quantity of plaques at 100 uM on day 5 by fluorescence based confocal microscope analysis (reference value: 24.7); format: functional; details: time 5 day
# Caenorhabditis elegans [9] = assay: Improvement in life span of transgenic Caenorhabditis elegans NL5901 expressing YFP-tagged alpha-synuclein assessed as increase in average lifespan at 100 uM (reference value: 8.52 day); format: functional; details: time 5 day
# Caenorhabditis elegans [10] = assay: Improvement in life span of transgenic Caenorhabditis elegans NL5901 expressing YFP-tagged alpha-synuclein assessed as decrease in death rate at 100 uM incubated for 5 days; format: functional, organism-based; details: time 5.0 day
# Caenorhabditis elegans [11] = assay: Improvement in movement disorder in transgenic Caenorhabditis elegans NL5901 expressing YFP-tagged alpha-synuclein assessed as increase in number of bends at 100 uM measured on day 10 (reference value: 11.1); format: functional; details: time 5 day
# PC-12 [12] = assay: Protection against alpha-synuclein induced rat PC12 cells death assessed as survival rate at alpha-synuclein to compound molar ratio 1:1 pre-incubated with alpha-synuclein for 10 days followed by cell addition and measured after 48 hrs by MTT assay (reference value: 58.07%); format: functional
# Caenorhabditis elegans [13] = assay: Antioxidant activity against transgenic Caenorhabditis elegans NL5901 expressing YFP-tagged alpha-synuclein assessed as increase in lipid content by measuring fluorescence intensity at 100 uM incubated for 5 days by Nile Red staining based confocal laser scanning microscope analysis (reference value: 41.32 %); format: functional; details: time 5 day
# Caenorhabditis elegans [14] = assay: Antioxidant activity against transgenic Caenorhabditis elegans NL5901 expressing YFP-tagged alpha-synuclein assessed as decrease in MDA content at 100 uM incubated for 5 days (reference value: 288.94 %); format: functional; parameters: scale not given: the % may be the effect or the level left; details: time 5 day
# Caenorhabditis elegans [15] = assay: In vivo inhibition of alpha-synuclein aggregation in transgenic Caenorhabditis elegans NL5901 expressing YFP-tagged alpha-synuclein at 100 uM under L4 stage to adult stage on day 5 and 10 by fluorescence based confocal microscope analysis; format: functional; details: time 5.0 day
# Caenorhabditis elegans [16] = assay: Inhibition of oxidative stress in Caenorhabditis elegans NL5901 expressing YFP-tagged alpha-synuclein assessed as decrease in ROS level by measuring average fluorescence intensity at 100 uM incubated for 5 days by DHE staining based confocal laser scanning microscope analysis (reference value: 1600%); format: functional; parameters: scale not given: the % may be the effect or the level left; details: time 5 day
# PC-12 [17] = assay: Protection against alpha-synuclein induced rat PC12 cells death assessed as survival rate at alpha-synuclein to compound molar ratio 1:2 pre-incubated with alpha-synuclein for 10 days followed by cell addition and measured after 48 hrs by MTT assay (reference value: 58.07%); format: functional
# Caenorhabditis elegans [18] = assay: In vivo inhibition of alpha-synuclein aggregation in transgenic Caenorhabditis elegans NL5901 expressing YFP-tagged alpha-synuclein assessed as reduction in number of alpha-synuclein aggregates plaques at 100 uM incubated for 5 days by fluorescence based confocal microscope analysis; format: functional; details: time 5.0 day
# Caenorhabditis elegans [19] = assay: Improvement in life span of transgenic Caenorhabditis elegans NL5901 expressing YFP-tagged alpha-synuclein assessed as increase in lifespan at 100 uM (reference value: 16 day); format: functional; details: time 5 day
# [20] = In vivo inhibition of alpha-synuclein aggregation in transgenic Caenorhabditis elegans NL5901 expressing YFP-tagged alpha-synuclein assessed as quantity of plaques at 100 uM on day 10 by fluorescence based confocal microscope analysis (reference value: 31.5); format: functional; details: time 5 day
# Caenorhabditis elegans [21] = assay: Antioxidant activity in transgenic Caenorhabditis elegans NL5901 expressing YFP-tagged alpha-synuclein assessed as increase in SOD activity at 100 uM incubated for 5 days (reference value: 33.32 %); format: functional; details: time 5 day
# Caenorhabditis elegans [22] = assay: Improvement in movement disorder in transgenic Caenorhabditis elegans NL5901 expressing YFP-tagged alpha-synuclein assessed as increase in number of bends at 100 uM measured on day 5 (reference value: 29.5); format: functional; details: time 5 day
# Caenorhabditis elegans [23] = assay: Inhibition of oxidative stress in transgenic Caenorhabditis elegans NL5901 expressing YFP-tagged alpha-synuclein assessed as reduction in ROS level by measuring fluorescence intensity at 100 uM incubated for 5 days by DHE staining based confocal laser scanning microscope analysis; format: functional, organism-based; details: time 5.0 day
# Caenorhabditis elegans [24] = assay: Antioxidant activity against transgenic Caenorhabditis elegans NL5901 expressing YFP-tagged alpha-synuclein assessed as increase in GSH-PX activity at 100 uM incubated for 5 days (reference value: 46.36 %); format: functional; details: time 5 day
# PC-12 [25] = assay: Protection against alpha-synuclein induced rat PC12 cells death assessed as survival rate at alpha-synuclein to compound molar ratio 1:0.5 pre-incubated with alpha-synuclein for 10 days followed by cell addition and measured after 48 hrs by MTT assay (reference value: 58.07%); format: functional
smiles,measurement,setting,value
COc1ccc(-c2coc3cc(O)ccc3c2=O)cc1O,inhibition,[1],82.3%
Oc1ccc2c(c1)OC[C@]1(O)Cc3cc(O)c(O)cc3[C@H]21 [BRAZILIN],Activity,PC-12 [2],60.46%
same,Activity,PC-12 [3],~20%
same,Activity,PC-12 [4],66.74%
same,Activity,PC-12 [5],82.15%
O=C(/C=C/c1ccc(O)c(O)c1)O[C@@H]1C[C@](O)(C(=O)O)C[C@@H](O)[C@H]1O [CHLOROGENIC ACID],Activity,Caenorhabditis elegans [6],~50%
same,Activity,Caenorhabditis elegans [7],~5%
CC(=O)Oc1ccc2c(c1)OC[C@]1(O)Cc3cc(O)c(O)cc3[C@H]21,Activity,PC-12 [2],60.46%
same,Activity,[8],7.2
same,ILS,Caenorhabditis elegans [9],10.35 days
same,Activity,Caenorhabditis elegans [10],Active
same,Activity,Caenorhabditis elegans [11],7.6
same,Activity,PC-12 [12],85.21%
same,Activity,Caenorhabditis elegans [13],57.69%
same,Activity,Caenorhabditis elegans [14],133%
same,Activity,PC-12 [4],66.74%
same,inhibition,Caenorhabditis elegans [15],Active
same,Activity,Caenorhabditis elegans [16],723.6%
same,Activity,PC-12 [17],93.51%
same,inhibition,Caenorhabditis elegans [18],Active
same,ILS,Caenorhabditis elegans [19],19 days
same,Activity,[20],16.2
same,Activity,Caenorhabditis elegans [21],60%
same,Activity,PC-12 [5],82.15%
same,Activity,Caenorhabditis elegans [22],8.4
same,Activity,Caenorhabditis elegans [23],Active
same,Activity,Caenorhabditis elegans [24],81.81%
same,Activity,PC-12 [25],72.26%
